Source: patent publication US9249129B2, “Morpholino substituted urea derivatives as mTOR inhibitors” (CELLZOME LIMITED, priority 2010, dated 2016)

Assays:
Experiment in all cases: kinobeads assay with mass spectrometry detection of kinases (kinase selectivity profile)
Format in all cases: binding
kinases (kinome) [1] = biological target: T1, kinases (kinome) (Homo sapiens, UniProt P06493); conditions: CDC2 (CMGC), IPI00026689
T1 construct: determined in kinobeads assays with mass spectrometry detection of kinases as described previously; endogenous in cells; host or cells: cell lysate
T1 sequence (P06493 whole entry): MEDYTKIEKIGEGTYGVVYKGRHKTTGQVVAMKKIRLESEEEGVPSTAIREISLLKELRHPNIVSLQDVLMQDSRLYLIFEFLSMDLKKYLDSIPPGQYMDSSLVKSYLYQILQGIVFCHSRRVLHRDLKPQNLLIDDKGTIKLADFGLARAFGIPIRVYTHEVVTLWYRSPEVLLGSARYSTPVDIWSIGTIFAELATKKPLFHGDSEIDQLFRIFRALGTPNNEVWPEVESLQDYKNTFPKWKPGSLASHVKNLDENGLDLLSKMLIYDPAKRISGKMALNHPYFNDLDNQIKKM
Text: (§1) The protein kinase complement of the human genome (the kinome) was described previously (Manning et al., 2002. Science 298(5600):1912-1934). Sequence accession numbers are defined by the International Protein Index (IPI) (Kersey et al., 2004. Proteomics 4(7):1985-1988).

kinases (kinome) [2] = biological target: T2, kinases (kinome) (Homo sapiens, UniProt P10721); conditions: KIT (TK), IPI00022296
T2 construct: determined in kinobeads assays with mass spectrometry detection of kinases as described previously; endogenous in cells; host or cells: cell lysate
T2 sequence (P10721 26-976): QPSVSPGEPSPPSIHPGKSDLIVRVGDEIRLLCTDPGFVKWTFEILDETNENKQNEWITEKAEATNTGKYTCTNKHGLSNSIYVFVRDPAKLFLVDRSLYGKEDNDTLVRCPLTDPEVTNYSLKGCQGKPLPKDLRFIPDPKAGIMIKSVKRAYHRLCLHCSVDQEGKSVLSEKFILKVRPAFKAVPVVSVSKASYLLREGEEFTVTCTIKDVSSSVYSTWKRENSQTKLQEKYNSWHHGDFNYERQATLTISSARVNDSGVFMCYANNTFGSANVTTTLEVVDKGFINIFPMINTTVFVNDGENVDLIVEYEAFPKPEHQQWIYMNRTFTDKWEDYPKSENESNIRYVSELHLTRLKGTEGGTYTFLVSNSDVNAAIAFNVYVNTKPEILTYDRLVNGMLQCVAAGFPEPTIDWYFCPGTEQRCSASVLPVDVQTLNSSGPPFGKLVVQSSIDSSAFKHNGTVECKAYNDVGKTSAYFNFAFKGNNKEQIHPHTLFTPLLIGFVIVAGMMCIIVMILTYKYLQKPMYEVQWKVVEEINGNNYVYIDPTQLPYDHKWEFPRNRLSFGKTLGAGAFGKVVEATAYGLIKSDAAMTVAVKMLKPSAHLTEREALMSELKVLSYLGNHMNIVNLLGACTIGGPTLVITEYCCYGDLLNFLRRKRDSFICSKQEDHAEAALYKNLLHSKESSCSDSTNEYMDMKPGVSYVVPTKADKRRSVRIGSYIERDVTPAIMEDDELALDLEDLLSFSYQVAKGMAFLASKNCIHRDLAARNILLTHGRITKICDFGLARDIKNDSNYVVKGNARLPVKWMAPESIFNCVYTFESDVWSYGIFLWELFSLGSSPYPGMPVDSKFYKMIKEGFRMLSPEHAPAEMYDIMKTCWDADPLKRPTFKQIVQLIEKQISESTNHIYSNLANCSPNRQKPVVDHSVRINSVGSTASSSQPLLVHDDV
Text: as §1

kinases (kinome) [3] = biological target: T3, kinases (kinome) (Homo sapiens, UniProt Q8N5S9); conditions: CaMKK1 (Other), IPI00792960
T3 construct: determined in kinobeads assays with mass spectrometry detection of kinases as described previously; endogenous in cells; host or cells: cell lysate
T3 sequence (Q8N5S9 whole entry): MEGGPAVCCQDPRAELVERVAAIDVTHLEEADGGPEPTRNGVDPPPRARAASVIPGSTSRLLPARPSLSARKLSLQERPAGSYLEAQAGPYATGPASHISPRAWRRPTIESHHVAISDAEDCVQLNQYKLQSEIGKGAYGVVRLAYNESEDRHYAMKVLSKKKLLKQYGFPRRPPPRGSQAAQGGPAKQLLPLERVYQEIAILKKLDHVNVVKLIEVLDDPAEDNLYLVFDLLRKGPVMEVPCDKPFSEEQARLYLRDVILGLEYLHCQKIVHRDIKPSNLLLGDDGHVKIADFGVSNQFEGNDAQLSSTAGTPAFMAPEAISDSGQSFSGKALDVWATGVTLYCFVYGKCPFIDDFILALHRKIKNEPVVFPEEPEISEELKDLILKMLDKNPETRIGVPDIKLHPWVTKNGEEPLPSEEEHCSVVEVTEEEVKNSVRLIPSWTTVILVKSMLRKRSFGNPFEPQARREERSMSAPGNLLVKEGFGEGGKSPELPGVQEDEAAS
Text: as §1

kinases (kinome) [4] = biological target: T4, kinases (kinome) (Homo sapiens, UniProt O14976); conditions: GAK (Other), IPI00298949
T4 construct: determined in kinobeads assays with mass spectrometry detection of kinases as described previously; endogenous in cells; host or cells: cell lysate
T4 sequence (O14976 1-1311): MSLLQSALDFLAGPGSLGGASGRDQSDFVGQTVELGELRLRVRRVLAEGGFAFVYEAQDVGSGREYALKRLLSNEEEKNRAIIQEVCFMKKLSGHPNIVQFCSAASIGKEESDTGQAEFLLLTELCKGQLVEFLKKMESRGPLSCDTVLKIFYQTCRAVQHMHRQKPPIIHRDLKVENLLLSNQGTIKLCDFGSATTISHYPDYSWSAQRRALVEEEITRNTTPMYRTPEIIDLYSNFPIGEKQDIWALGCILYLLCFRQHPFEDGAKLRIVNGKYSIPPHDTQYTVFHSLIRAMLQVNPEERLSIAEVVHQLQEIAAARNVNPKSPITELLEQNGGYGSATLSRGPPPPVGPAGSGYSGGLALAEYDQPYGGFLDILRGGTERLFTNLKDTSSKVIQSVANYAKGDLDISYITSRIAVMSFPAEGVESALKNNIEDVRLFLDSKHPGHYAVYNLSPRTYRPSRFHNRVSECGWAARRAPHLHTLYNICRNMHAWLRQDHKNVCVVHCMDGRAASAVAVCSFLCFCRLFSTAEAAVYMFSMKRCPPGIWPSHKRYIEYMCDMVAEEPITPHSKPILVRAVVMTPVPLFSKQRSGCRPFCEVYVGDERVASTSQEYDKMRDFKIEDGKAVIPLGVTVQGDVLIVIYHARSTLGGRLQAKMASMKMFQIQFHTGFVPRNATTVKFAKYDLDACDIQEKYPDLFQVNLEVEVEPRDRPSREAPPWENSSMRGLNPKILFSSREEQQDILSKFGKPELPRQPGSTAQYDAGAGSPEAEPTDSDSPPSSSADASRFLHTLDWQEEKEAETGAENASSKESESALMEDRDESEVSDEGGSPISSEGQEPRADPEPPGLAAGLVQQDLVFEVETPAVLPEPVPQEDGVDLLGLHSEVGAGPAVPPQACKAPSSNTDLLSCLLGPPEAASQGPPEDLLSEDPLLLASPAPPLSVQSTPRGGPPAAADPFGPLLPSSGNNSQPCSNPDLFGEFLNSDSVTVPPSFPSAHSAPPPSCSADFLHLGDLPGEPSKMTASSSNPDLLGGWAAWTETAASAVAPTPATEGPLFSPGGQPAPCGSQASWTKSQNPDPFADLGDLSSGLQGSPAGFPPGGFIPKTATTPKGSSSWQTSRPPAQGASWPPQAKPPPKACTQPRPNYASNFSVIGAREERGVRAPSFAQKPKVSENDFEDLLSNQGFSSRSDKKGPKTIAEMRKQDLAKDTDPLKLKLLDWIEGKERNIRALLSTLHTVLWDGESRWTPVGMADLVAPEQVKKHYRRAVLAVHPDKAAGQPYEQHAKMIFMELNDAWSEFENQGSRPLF
Text: as §1

kinases (kinome) [5] = biological target: T5, kinases (kinome) (Homo sapiens, UniProt Q13418); conditions: ILK (TKL), IPI00013219
T5 construct: determined in kinobeads assays with mass spectrometry detection of kinases as described previously; endogenous in cells; host or cells: cell lysate
T5 sequence (Q13418 1-452): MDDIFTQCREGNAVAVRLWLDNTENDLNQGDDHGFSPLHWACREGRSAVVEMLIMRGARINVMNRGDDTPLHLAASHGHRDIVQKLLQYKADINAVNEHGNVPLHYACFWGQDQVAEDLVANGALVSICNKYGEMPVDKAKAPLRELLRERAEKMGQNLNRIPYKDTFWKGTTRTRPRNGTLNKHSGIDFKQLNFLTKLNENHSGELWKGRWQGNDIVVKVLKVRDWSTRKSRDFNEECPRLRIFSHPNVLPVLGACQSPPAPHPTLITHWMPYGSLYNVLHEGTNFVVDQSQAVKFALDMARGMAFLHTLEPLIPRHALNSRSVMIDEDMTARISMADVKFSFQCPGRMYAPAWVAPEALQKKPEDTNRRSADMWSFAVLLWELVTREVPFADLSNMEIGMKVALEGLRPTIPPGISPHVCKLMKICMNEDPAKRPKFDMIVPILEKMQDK
Text: as §1

kinases (kinome) [6] = biological target: T6, kinases (kinome) (Homo sapiens, UniProt P51617); conditions: IRAK1 (TKL), IPI00293652
T6 construct: determined in kinobeads assays with mass spectrometry detection of kinases as described previously; endogenous in cells; host or cells: cell lysate
T6 sequence (P51617 whole entry): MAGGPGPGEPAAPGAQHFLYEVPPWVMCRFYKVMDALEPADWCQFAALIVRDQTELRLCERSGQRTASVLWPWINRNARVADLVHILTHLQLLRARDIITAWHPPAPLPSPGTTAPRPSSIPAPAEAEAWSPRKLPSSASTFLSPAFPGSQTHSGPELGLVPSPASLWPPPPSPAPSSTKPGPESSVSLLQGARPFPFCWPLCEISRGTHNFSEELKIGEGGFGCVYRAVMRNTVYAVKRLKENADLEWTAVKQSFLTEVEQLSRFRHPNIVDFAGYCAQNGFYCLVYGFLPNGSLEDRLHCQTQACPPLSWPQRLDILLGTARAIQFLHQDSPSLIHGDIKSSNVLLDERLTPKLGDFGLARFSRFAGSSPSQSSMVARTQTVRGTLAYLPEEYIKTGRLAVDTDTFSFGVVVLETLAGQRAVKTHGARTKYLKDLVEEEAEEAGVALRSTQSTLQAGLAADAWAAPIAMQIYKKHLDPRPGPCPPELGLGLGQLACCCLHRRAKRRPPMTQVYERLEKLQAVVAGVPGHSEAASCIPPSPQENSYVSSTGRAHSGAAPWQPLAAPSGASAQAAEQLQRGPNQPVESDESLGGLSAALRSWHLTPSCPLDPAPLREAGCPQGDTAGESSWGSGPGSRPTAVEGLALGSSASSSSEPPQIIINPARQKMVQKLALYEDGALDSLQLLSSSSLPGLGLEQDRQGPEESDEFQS
Text: as §1

kinases (kinome) [7] = biological target: T7, kinases (kinome) (Homo sapiens, UniProt Q8NEB9); conditions: PIK3C3 (Lipid Kinase), IPI00873758
T7 construct: determined in kinobeads assays with mass spectrometry detection of kinases as described previously; endogenous in cells; host or cells: cell lysate
T7 sequence (Q8NEB9 whole entry): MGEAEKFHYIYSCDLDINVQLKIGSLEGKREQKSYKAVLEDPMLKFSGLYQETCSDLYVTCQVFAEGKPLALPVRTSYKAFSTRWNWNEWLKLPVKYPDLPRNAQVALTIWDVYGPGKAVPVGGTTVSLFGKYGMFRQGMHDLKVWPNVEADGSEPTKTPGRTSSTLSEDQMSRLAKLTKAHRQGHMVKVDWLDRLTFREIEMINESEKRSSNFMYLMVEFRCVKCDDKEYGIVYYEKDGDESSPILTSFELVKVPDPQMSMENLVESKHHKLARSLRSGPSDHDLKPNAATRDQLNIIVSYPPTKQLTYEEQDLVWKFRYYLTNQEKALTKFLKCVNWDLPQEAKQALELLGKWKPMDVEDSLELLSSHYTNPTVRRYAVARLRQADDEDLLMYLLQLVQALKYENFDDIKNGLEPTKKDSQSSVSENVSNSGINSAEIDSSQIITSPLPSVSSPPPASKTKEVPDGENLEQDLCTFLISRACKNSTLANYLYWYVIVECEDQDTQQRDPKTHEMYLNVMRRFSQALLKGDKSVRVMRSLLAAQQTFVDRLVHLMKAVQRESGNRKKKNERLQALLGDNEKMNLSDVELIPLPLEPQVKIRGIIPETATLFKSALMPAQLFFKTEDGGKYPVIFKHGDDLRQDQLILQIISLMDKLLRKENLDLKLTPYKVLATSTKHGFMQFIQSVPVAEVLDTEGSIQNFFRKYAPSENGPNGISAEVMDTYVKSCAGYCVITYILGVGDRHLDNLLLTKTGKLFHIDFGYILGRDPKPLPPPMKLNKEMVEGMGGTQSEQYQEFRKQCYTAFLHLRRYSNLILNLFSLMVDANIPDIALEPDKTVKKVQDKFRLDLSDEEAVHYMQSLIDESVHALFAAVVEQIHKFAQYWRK
Text: as §1

| IC50 (kinases (kinome) [1]) [µM] | IC50 (kinases (kinome) [2]) [µM] | IC50 (kinases (kinome) [3]) [µM] | IC50 (kinases (kinome) [4]) [µM] | IC50 (kinases (kinome) [5]) [µM] | IC50 (kinases (kinome) [6]) [µM] | IC50 (kinases (kinome) [7]) [µM] | SMILES |
| --- | --- | --- | --- | --- | --- | --- | --- |
| > 10 | > 10 | > 10 | > 10 | > 10 | > 10 | > 10 | C[C@H]1COCCN1c1nc(-c2ccc(NC(=O)NC3CC3)cc2)cc(-c2cc(F)ccc2S(C)(=O)=O)n1 [Example 40, (S)-1-cyclopropyl-3-(4-(6-(5-fluoro-2-(methylsulfonyl)phenyl)-2-(3-methylmorpholino)pyrimidin-4-yl)phenyl)urea] |
| – | – | – | – | > 10 | – | – | CCNC(=O)Nc1ccc(-c2cc(-c3ccccc3C#N)nc(N3CCOC[C@@H]3C)n2)cc1 [Example 8, (S)-1-(4-(6-(2-cyanophenyl)-2-(3-methylmorpholino)pyrimidin-4-yl)phenyl)-3-ethylurea] |
| > 10 | > 10 | > 10 | > 10 | – | > 10 | > 10 | C[C@H]1COCCN1c1nc(-c2ccc(NC(=O)NC3CC3)cc2)cc(-c2cccnc2S(C)(=O)=O)n1 [Example 46, (S)-1-cyclopropyl-3-(4-(2-(3-methylmorpholino)-6-(2-(methylsulfonyl)pyridin-3-yl)pyrimidin-4-yl)phenyl)urea] |
| > 10 | – | > 10 | > 10 | > 10 | > 10 | > 10 | C[C@H]1COCCN1c1nc(-c2ccc(NC(=O)N[C@H]3CCC[C@@H]3O)cc2)cc(-c2cc(F)ccc2S(C)(=O)=O)n1 [Example 76, 1-(4-(6-(5-fluoro-2-(methylsulfonyl)phenyl)-2-((S)-3-methylmorpholino)pyrimidin-4-yl)phenyl)-3-((1S,2S)-2-hydroxycyclopentyl)urea] |
| – | > 10 | > 10 | > 10 | > 10 | > 10 | > 10 | C[C@H]1COCCN1c1cc(-c2ccccn2)nc(-c2ccc(NC(=O)NCCO)cc2)n1 [Example 43, (S)-1-(2-hydroxyethyl)-3-(4-(4-(3-methylmorpholino)-6-(pyridin-2-yl)pyrimidin-2-yl)phenyl)urea] |
| > 10 | – | > 10 | > 10 | > 10 | > 10 | > 10 | C[C@H]1COCCN1c1nc(-c2ccc(NC(=O)NC3CC3)cc2)cc(-c2ccccc2S(C)(=O)=O)n1 [Example 4, (S)-1-cyclopropyl-3-(4-(2-(3-methylmorpholino)-6-(2-(methylsulfonyl)phenyl)pyrimidin-4-yl)phenyl)urea] |
